Patent US20100267653A1, “USE OF COUMARIN DERIVATIVES IN ANTIFUNGAL THERAPY” (priority 2006, published 2010)
Values after ≈ are worked out from the molar mass of the structure shown.

Tests used:
[1] = Solubility of coumarins in RPMI 1640 media and DMSO; type: physicochemical; details: for solubility: RPMI 1640 medium with DMSO co-solvent, aqueous buffer, kinetic from dmso stock, pH = 7.0, in presence of the DMSO concentration of the same table line
Procedure: The solubility of the aglycones was compared to the respective glycoside in RPMI 1640 media and in DMSO.
(§1) Solubilisation of other compounds required the presence of DMSO. Esculetin, daphnetin, 4-(trifluoromethyl) coumarin, 4-(trifluoromethyl)-coumarin-7-0-glucose and cichoriin were dissolved in DMSO at 1000× final test concentration; when this solution was diluted to the concentration used in the experiments using 2× strength RPMI 1640 medium, the final concentration of DMSO was […] which alone had no effect on the fungi when tested in several experiments performed. Fraxetin required a final concentration of 0.2% DMSO, but this too had no effect on the growth of the fungi when tested in separate experiments.

[2] = test system: Trichophyton rubrum NCPF118; test: Antifungal activity, growth in RPMI 1640 microtitre plates (OD 530 nm); type: cell-based
Procedure: (§2) Esculin, esculetin and a range of other coumarins and their glycosides were tested for their antifungal activity against Trichophyton rubrum, Trichophyton interdigitale and other fungi isolated from nails and skin.
(§3) Suspensions of fungal conidia and hyphal fragments for use as experimental inocula were prepared by adding 3 ml of demineralised water or 0.15% (w/v) NaCl solution to a slope culture which had been incubated at 30° C. for 7 to 10 days and probing the surface of the culture with a sterile plastic transfer pipette. […] The resulting suspension was filtered through a double layer of sterile surgical gauze; if necessary a further volume of up to 3 ml of water or 0.15% (w/v) NaCl was used to wash through any spores or small hyphal fragments held on the gauze. 100 μl of this suspension, adjusted to an optical density between 0.14 and 0.16 at 530 nm (corresponding to between 0.5 and 1.5×10^6 propagules/ml) was added to the wells in sterile 96-well microtitre plates to which 100 μl of 2× strength RPMI 1640 media (a chemically-defined nutrient medium widely used in tissue culture and antimicrobial resistance testing) had been added. Inocula prepared in this way were used in all of the experiments; additionally, for some experiments with esculin shown in FIG. 4, the results obtained with standard inocula prepared as described above (labelled “young inoculum” in FIG. 4), were compared with the results obtained in similar tests using inocula which had been cultured for up to 9 weeks (labelled “old inoculum” in FIG. 4). As appropriate, coumarins were pre-dissolved in 2× strength RPMI 1640 medium before addition to the plate. Experiments with the yeasts Candida albicans and Candida krusei were set up in the same way, but in these cases, filtration of the cell suspensions was not necessary.
as §1
(§4) A series of dilutions of the coumarin solutions was prepared on the plates by mixing known volumes of the coumarin stock solutions in the wells with fresh volumes of 2×RPMI 1640 medium. Each concentration of coumarin was studied in triplicate wells. For observations on Trichophyton rubrum NCPF118 and Trichophyton interdigitale NCPF335, obtained from the National Collection of Pathogenic Fungi (Bristol), the plates were incubated in a Bio-Tek Powerwave XS scanning plate reader at 30° C., and fungal growth within the plates was measured at intervals of 2 h for up to 72 h or 96 h as specified in the text by recording the absorbance (optical density) of the wells at 530 nm. Observations on Candida albicans and Candida krusei were made in the same way, but the incubation temperature was 37° C. and the incubation time was 48 h. For observations with clinical fungal isolates obtained from the collection of M. Monod (Lausanne, Switzerland), the procedure was as described above except that in response to the relatively slow growth of these isolates, incubations were performed in a static incubator at 30° C. and the plates were read manually in a Bio-Tek Powerwave XS scanning plate reader at intervals of 24 h for up to 168 h, being returned to the incubator after each reading. Malassezia furfur grows poorly in the system described above, so for this organism, a standard inoculum of M. furfur was mixed with an equal volume of a solution of esculetin and the mixture was plated onto Petri dishes containing Sabouraud's agar medium. […]

T. rubrum strain 1072 = test: Sensitivity of clinical isolates of dermatophytes to esculetin; type: cell-based, Trichophyton rubrum; design: key to Sensitive (S) or Resistant (R): Sensitive (S); Resistant (R); details: T. rubrum strain 1072, 3 tested
Procedure: as §2
(§5) Suspensions of fungal conidia and hyphal fragments for use as experimental inocula were prepared by adding 3 ml of demineralised water or 0.15% (w/v) NaCl solution to a slope culture which had been incubated at 30° C. for 7 to 10 days and probing the surface of the culture with a sterile plastic transfer pipette. […] The resulting suspension was filtered through a double layer of sterile surgical gauze; if necessary a further volume of up to 3 ml of water or 0.15% (w/v) NaCl was used to wash through any spores or small hyphal fragments held on the gauze. […]
(§6) A series of dilutions of the coumarin solutions was prepared on the plates by mixing known volumes of the coumarin stock solutions in the wells with fresh volumes of 2×RPMI 1640 medium. […] For observations on Trichophyton rubrum NCPF118 and Trichophyton interdigitale NCPF335, obtained from the National Collection of Pathogenic Fungi (Bristol), the plates were incubated in a Bio-Tek Powerwave XS scanning plate reader at 30° C., and fungal growth within the plates was measured at intervals of 2 h for up to 72 h or 96 h as specified in the text by recording the absorbance (optical density) of the wells at 530 nm. […]

T. mentagrophytes = test: as above; type: cell-based, Trichophyton mentagrophytes; design: key to Sensitive (S) or Resistant (R): Sensitive (S); Resistant (R); details: 27 strains tested
Procedure: as §2, §5, §6

[3] = test system: T. mentagrophytes var interdigitale strain 386; test: as above; type: cell-based, Trichophyton mentagrophytes var. interdigitale; design: key to Sensitive (S) or Resistant (R): Sensitive (S); Resistant (R); details: strain 386, 1 strain tested
Procedure: as §2, §5, §6

T. tonsurans = test: as above; type: cell-based, Trichophyton tonsurans; design: key to Sensitive (S) or Resistant (R): Sensitive (S); Resistant (R); details: 2 strains tested
Procedure: as §2, §5, §6

T. soudanense = test: as above; type: cell-based, Trichophyton soudanense; design: key to Sensitive (S) or Resistant (R): Sensitive (S); Resistant (R); details: 2 strains tested
Procedure: as §2, §5, §6

Microsporum canis = test: as above; type: cell-based; design: key to Sensitive (S) or Resistant (R): Sensitive (S); Resistant (R); details: 4 strains tested
Procedure: as §2
(§7) Suspensions of fungal conidia and hyphal fragments for use as experimental inocula were prepared by adding 3 ml of demineralised water or 0.15% (w/v) NaCl solution to a slope culture which had been incubated at 30° C. for 7 to 10 days and probing the surface of the culture with a sterile plastic transfer pipette. […] The resulting suspension was filtered through a double layer of sterile surgical gauze; if necessary a further volume of up to 3 ml of water or 0.15% (w/v) NaCl was used to wash through any spores or small hyphal fragments held on the gauze. 100 μl of this suspension, adjusted to an optical density between 0.14 and 0.16 at 530 nm (corresponding to between 0.5 and 1.5×10^6 propagules/ml) was added to the wells in sterile 96-well microtitre plates to which 100 μl of 2× strength RPMI 1640 media (a chemically-defined nutrient medium widely used in tissue culture and antimicrobial resistance testing) had been added. Inocula prepared in this way were used in all of the experiments; additionally, for some experiments with esculin shown in FIG. 4, the results obtained with standard inocula prepared as described above (labelled “young inoculum” in FIG. 4), were compared with the results obtained in similar tests using inocula which had been cultured for up to 9 weeks (labelled “old inoculum” in FIG. 4). As appropriate, coumarins were pre-dissolved in 2× strength RPMI 1640 medium before addition to the plate. […]
as §4, with “Each concentration of coumarin was studied in triplicate wells.” left out, “Observations on Candida albicans and Candida krusei were made in the same way, but the incubation temperature was 37° C. and the incubation time was 48 h.” left out, “reading.” for “reading. Malassezia furfur grows poorly in the system described above, so for this organism, a standard inoculum of M. furfur was mixed with an equal volume of a solution of esculetin and the mixture was plated onto Petri dishes containing Sabouraud's agar medium.”

Trichophyton rubrum = test: as above; type: cell-based; design: key to Sensitive (S) or Resistant (R): Sensitive (S); Resistant (R); details: 48 strains tested
Procedure: as §2, §7
as §4, with “Each concentration of coumarin was studied in triplicate wells.” left out, “Observations on Candida albicans and Candida krusei were made in the same way, but the incubation temperature was 37° C. and the incubation time was 48 h.” left out, “reading.” for “reading. Malassezia furfur grows poorly in the system described above, so for this organism, a standard inoculum of M. furfur was mixed with an equal volume of a solution of esculetin and the mixture was plated onto Petri dishes containing Sabouraud's agar medium.”

M. gypseum = test: as above; type: cell-based, Microsporum gypseum; design: key to Sensitive (S) or Resistant (R): Sensitive (S); Resistant (R); details: clinical isolate, 1 strain tested
Procedure: as §2, §5, §6

Alternaria spp. = test: Sensitivity of other fungal isolates of pathogenic fungi to esculetin; type: cell-based; design: key to Sensitive (S) or Resistant (R): Sensitive (S); Resistant (R); details: 1 strain tested
Procedure: as §2, §3, §1, §4

Aspergillus fumigatus = test: as above; type: cell-based; design: key to Sensitive (S) or Resistant (R): Sensitive (S); Resistant (R); details: 1 strain tested
Procedure: as §2, §3, §1, §4

Curvularia spp. = test: as above; type: cell-based; design: key to Sensitive (S) or Resistant (R): Sensitive (S); Resistant (R); details: 1 strain tested
Procedure: as §2, §3, §1, §4

Fusarium spp. = test: as above; type: cell-based; design: key to Sensitive (S) or Resistant (R): Sensitive (S); Resistant (R); details: 15 strains tested
Procedure: as §2, §3, §1, §4

[4] = test system: Scopulariopsis brevicaulis; test: as above; type: cell-based; design: key to Sensitive (S) or Resistant (R): Sensitive (S); Resistant (R); details: 4 strains tested
Procedure: as §2, §3, §1, §4

[5] = test system: Candida albicans, Cryptococcus neoformans, Saccharomyces cerevisiae and Aspergillus niger; details: Sardari et al, Bioorg. Med. Chem. 7, 1999; cited from earlier work

In the case of `O=c1ccc2cc(O)c(O)cc2o1` [Esculetin, 6,7 dihydroxycoumarin], the solubility [1] is reported as 5000 µM, the “DMSO Concentration” value ([1]; pH 7) is reported as 0.1 % v/v and the “antifungal effect versus T. rubrum NCPF118” value ([2]; FIG. 3) is reported as “dose-dependent antifungal effect”. The “MIC esculetin, range in mM” value (T. rubrum strain 1072) was “≧2 mM”, the “Sensitive (S) or Resistant (R)” value (T. rubrum strain 1072) was “R” and the “MIC esculetin, range in mM” value (T. mentagrophytes) was 1.1 ± 0.5 mM (≈ 196 µg/mL). For the same compound, the “Sensitive (S) or Resistant (R)” value (T. mentagrophytes) was “S”, the “MIC esculetin, range in mM” value [3] was “≧2 mM” and the “Sensitive (S) or Resistant (R)” value [3] was “R”. For the same compound, the “MIC esculetin, range in mM” value (T. tonsurans) was 0.25 ± 0.18 mM (≈ 44.5 µg/mL), the “Sensitive (S) or Resistant (R)” value (T. tonsurans) was “S” and the “MIC esculetin, range in mM” value (T. soudanense) was 0.31 ± 0.27 mM (≈ 55.2 µg/mL). The “Sensitive (S) or Resistant (R)” value (T. soudanense) was “S”, the “MIC esculetin, range in mM” value (Microsporum canis) was 1.0 ± 0.58 mM (≈ 178 µg/mL) and the “Sensitive (S) or Resistant (R)” value (Microsporum canis) was “S”. The “MIC esculetin, range in mM” value (Trichophyton rubrum) was 0.54 ± 0.37 mM (≈ 96.2 µg/mL), the “Sensitive (S) or Resistant (R)” value (Trichophyton rubrum) was “S” and the “MIC esculetin, range in mM” value (M. gypseum) was “≧2 mM”. For the same compound, the “Sensitive (S) or Resistant (R)” value (M. gypseum) was “R”, the “Sensitive (S) or Resistant (R)” value (Alternaria spp.) was “S” and the MIC (Alternaria spp.; Alternaria) was 1000 µM (≈ 178 µg/mL). For the same compound, the “Sensitive (S) or Resistant (R)” value (Aspergillus fumigatus) was “R”, the MIC (Aspergillus fumigatus; Aspergillus fumigatus) was ≥ 2000 µM and the “Sensitive (S) or Resistant (R)” value (Curvularia spp.) was “R”. The MIC (Curvularia spp.; Curvularia) was ≥ 2000 µM, the “Sensitive (S) or Resistant (R)” value (Fusarium spp.) was “R” and the MIC (Fusarium spp.; Fusarium) was ≥ 2000 µM. For the same compound, the “Sensitive (S) or Resistant (R)” value [4] was “R”, the MIC ([4]; Scopulariopsis brevicaulis) was ≥ 2000 µM and the “antifungal activity against the fungi tested” value [5] was “minimal antifungal activity”.
For `O=c1cc(C(F)(F)F)c2ccc(O)cc2o1` [4-(trifluoromethyl)coumarin, 7-hydroxy-4-(trifluoromethyl)coumarin], the “solubility (in words)” value [1] was “only being soluble at low concentrations”, the “DMSO Concentration” value ([1]; DMSO present for the stated solubility in RPMI 1640) was 0.2 % v/v and the solubility [1] was 2000 µM. For the same compound, the MIC ([2]; Trichophyton rubrum, T. rubrum NCPF118, 30° C., read-out: MIC) was 1000 µM (≈ 230 µg/mL) and the “activity of halogenated coumarin aglycone versus T. rubrum NCPF118” value ([2]; at concentrations of 1-2 mM, FIG. 6) was “significantly antifungal”.
With `O=c1cc(C(F)(F)F)c2ccc(OC3O[C@H](CO)[C@@H](O)[C@H](O)[C@H]3O)cc2o1` (stereo partly drawn) [4-(trifluoromethyl)coumarin-7-glucoside] the “DMSO Concentration” value ([1]; pH 7) was 0 % v/v.
